Source: patent publication US12576097B2, “Anti-tumor effective component of Hedyotis diffusa, preparation method therefor and use thereof” (Guangdong New Ear Life Technology Co., Ltd., priority 2020, dated 2026)
“Also recorded” adds a separate entry of the source. Marks after values point to notes of the source that are not given here.

Key:
[1] = system: human liver cancer Hep-G2 cells; assay: Inhibition rate on human liver cancer Hep-G2 cells (CCK-8); assay type: cell-based; settings: 24 h; for inhibition rate: 3 mg/mL drug solutions
Experimental: A cryopreservation tube containing liver cancer Hep-G2 cells was taken out from a liquid nitrogen tank, quickly placed in a water bath at 38-39° C., and continuously shaken to be fully thawed within 1 min. The cryopreservation tube was centrifuged at 800 r/min for 9 min, and sprayed with 75% alcohol on the outside thereof, and then put into a ultra-clean table. The resulting supernatant was sucked and discarded. 1 ml of DMEM complete medium was added, and a mixture of the cells and the DMEM complete medium was blown evenly, and then the cells were transferred to a 25 ml culture dish. 6-8 ml of DMEM complete medium was added, and a mixture of the cells and the DMEM complete medium was gently blown evenly, and put into a constant temperature incubator at 37° C. with 5% CO2.
The old medium in the item 2.1 was sucked out. 2 ml of PBS buffer solution was added, and the cells were washed by gently shaking the culture flask. The PBS buffer solution was sucked out to remove the loose, dead and senescent cells and their metabolic wastes, and the cells were washed for 2-3 times. 2 ml of trypsin was added, and the culture dish was gently shaken for 30 s. After the trypsin was sucked out, the culture dish was put into the incubator for full digestion for 3 min, and 2 ml of fresh DMEM complete culture was added. The cells were gently blown and dispersed into individual cells under a microscope, and then 6-8 ml of fresh DMEM complete medium was added and the cells were incubated in a constant temperature incubator.
2 mL trypsin was added into the cells cultured in the item 2.2 in the logarithmic growth phase and the cells were digested for 30 s. After the trypsin was sucked out, the culture dish was placed into the incubator for full digestion for 3 min, and 2 mL of fresh medium was added. The cells were gently blown to disperse the cells into individual cells under the microscope. 10 μL of cell suspension and 10 μL of 0.4% Trypan blue staining solution were mixed well to fully stain the cells. 10 μL of the stained cell suspension was added to a cell counting plate, and the number of cells was counted by a fully automatic cell counter. The cell suspension was diluted to 2×10^5 cells/mL with a DMEM complete medium. 100 μL of cell suspension was sucked with a multichannel pipette and seeded into a 96-well plate and incubated in a constant temperature incubator at 37° C. with 5% CO2 for 24 h.
30 mL of DMEM complete medium was accurately measured, 30 μL of DMSO was added, and uniform mixing was conducted to prepare 0.1% DMSO medium. […] The kaempferol solution and the methyl ester solution having the above concentrations were uniformly mixed to prepare drug solutions having the desired ratio based on the mass ratio of kaempferol to methyl ester being 1:1, 1:2, 1:3, 1:4, 1:5, 5:1, 4:1, 3:1 and 2:1, 400 μL of each drug solution. 1 mg/mL of 5-fluorouracil solution was diluted to a concentration of 800, 600, 400, 200, 100, 50, 25 μg/mL, respectively, 400 μL of each drug solution.
The old medium in the 96-well plate in the item 2.3 was sucked out, and 100 μL of PBS buffer solution was added to each well to remove the loose, dead and senescent cells and their metabolic wastes. After that, the PBS buffer solution was sucked out. 100 μL of the prepared drug solution was added to each well, 3 wells in parallel. A negative control was set up, in which an equal volume of DMEM complete medium containing 0.1 vol % DMSO was added to each well, 3 wells in parallel. A blank control was a DMEM complete medium containing 0.1 vol % DMSO free of cells, 3 wells in parallel. The cells were incubated for 24 h in a constant temperature incubator at 37° C. with 5% CO2.
The DMEM complete medium containing 0.1 vol % DMSO in the drug solutions and negative control in the 96-well plate in the item 2.5 were sucked out. […]

[2] = Spleen and thymus weight and blood count of S180 tumor-bearing mice; assay type: in vivo, ICR mice; settings: for relative spleen weight compared with model group: FIG. 5; for relative thymus weight compared with model group: FIG. 6; for number of leukocytes compared with model group: FIG. 7; for percentage of lymphocytes compared with model group: FIG. 8
Experimental: (§1) 168 ICR class II male mice with a weight of 18-22 g were used. The mice were kept under the conditions of the item 2.2 for adaptive feeding for four days before the experiment. After four days, the mice were weighed and their autonomy was measured. […] Each mouse was inoculated with S180 tumor according to the method in the item 2.3, and the drug was administered by gavage after inoculation.
(§2) A appropriate amount of test samples were weighed precisely, and prepared into test sample solutions having the desired concentrations by using a 5 vol % ethanol aqueous solution as a solvent, i.e.: the effective parts of 5 mg/kg, 10 mg/kg and 20 mg/kg correspond to the test sample solutions of the groups of the effective part 5, effective part 10, and effective part 20, respectively; E-6-O-(p-coumaroyl)scandoside methyl ester of 2.5 mg/kg, 5 mg/kg, 10 mg/kg, and 20 mg/kg correspond to the test sample solutions of the groups of methyl ester 2.5, methyl ester 5, methyl ester 10 and methyl ester 20, respectively; kaempferol-3-O-[2-O-(6-O-E-feruloyl)-β-D-glucopyranosyl]-β-D-galactopyranose of 2.5 mg/kg, 5 mg/kg, 10 mg/kg and 20 mg/kg correspond to the test sample solutions of the groups of kaempferol 2.5, kaempferol 5, kaempferol 10 and kaempferol 20, respectively. […] Each mouse was administered by gavage at a dose of 0.2 ml/10 g. During the administration period, the mice were fed at 3 g/mouse and ingested water and food freely. All mice were continuously administered for 9 days, and sacrificed by decapitation on day 10. Blood, tumor, liver, spleen, and thymus of mice were collected. The blood collected was placed in a low temperature environment and sent out for blood check. The weight of the tumor, liver, spleen, and thymus and the size of the tumor were recorded.
(§3) The recorded results were expressed as mean plus or minus standard deviation (X±SD), and the data were analyzed by using statistical software SPSS 11.5 software.

[3] = system: Solid tumor cell line S180; assay: In-vivo anti-tumor experiment of E-6-O-(p-coumaroyl)scandoside methyl ester and its metabolite p-coumaric acid (S180 tumor); set-up: species or system ICR mice; settings: 10 mg/kg by gavage, 9 days; for relative tumor weight mean ± SD: S180 tumor-bearing ICR mice; for inhibition rate: vs model group
Experimental: (§4) The experimental instruments were placed in a clean table and sterilized for about 30 min by turning on a UV lamp. The mice that were injected with ascites (about one week) were sacrificed by cervical dislocation, and abdomens of the mice were wiped with an alcohol swab. A 20 ml syringe was selected to suck the ascites (milky white is preferred) from the mice. The sucked ascites were placed in a sterile vial, and the vial was placed in a small box with ice. A certain amount of ascites was sucked onto a counting plate and placed under a microscope for counting, and the number of the cells was 10^7 as a base for tumor inoculation (1:2) and passage (1:5).
(§5) The adaptively fed ICR class II male mice were taken, and wiped with an alcohol swab on the armpit areas of the right forelimbs. The axillary cavities of the right forelimbs of the mice were inoculated with diluted mice ascite cell (10^7 cells) suspension at 0.2 ml per mouse. After tumor inoculation, the mice were fed and watered freely. One hour later, the drug was administered by gavage.
30 ICR class II male mice with a weight of 18-22 g were used. The mice were adaptively fed for four days under the conditions of the item 2.2 before the experiment. After four days, the mice were weighed and their autonomy was measured. The ICR mice were randomly divided into three groups, namely: a model group, methyl ester 10, p-coumaric acid 10, 10 mice in each group. Each mouse was inoculated with S180 tumor according to the method of the item 2.3, and the drug was administered by gavage after inoculation.
The appropriate amount of test samples were weighed precisely and prepared into test sample solutions having the desired concentrations by using a 5 vol % ethanol aqueous solution as a solvent, i.e.: E-6-O-(p-coumaroyl)scandoside methyl ester of 10 mg/kg; p-coumaric acid of 10 mg/kg. […] The blank group was given a solvent, the positive drug control group was given the cyclophosphamide solution, and the other groups were given the corresponding drugs and doses. Each mouse was administered by gavage at a dose of 0.2 ml/10 g. The mice were fed at 3 g/mouse and ingested water and food freely during the administration period. All mice were continuously administered for 9 days and sacrificed by decapitation on day 10. Blood, tumor, liver, spleen and thymus of the mice were collected. The blood obtained was placed in a low-temperature environment and sent out for blood check. The weight of the tumor, liver, spleen and thymus and the size of the tumor were recorded.
as §3

[4] = system: Solid tumor cell line S180; assay: In-vivo anti-tumor experiment after S180 tumor inoculation in mice; set-up: species or system ICR mice; settings: 9 days; for relative tumor weight mean ± SD: S180 tumor-bearing ICR mice; for inhibition rate: vs model group; for best dose for tumor inhibition: dose with the highest inhibition rate, gavage
Experimental: Solid tumor cell line S180 cryopreservation tube were taken out from a liquid nitrogen tank and quickly placed into water at 37° C. with occasional shaking. After cryopreserved cell mother liquor was thawed, the lid edge of the cryopreservation tube was wiped with an alcohol swab. The thawed cell liquor was injected intraperitoneally into the peritoneal cavities of ICR mice by a syringe. The mice were kept at room temperature of 25±5° C., humidity of 60±10%, natural light, and free to ingest food and water. After about one week, ascites in the peritoneal cavities of the ICR mice were sucked by a syringe and injected into the peritoneal cavities of new ICR mice at a dose of 0.5 ml per mouse for passage for standby application.
ICR class II mice, weighing about 18-22 g. Feeding conditions: room temperature of 25±5° C., humidity of 60±10%, natural light, free intake of water, and all mice were kept in the feeding environment for adaptive feeding for four days, fasted for 12 h before the experiment, free intake of water.
as §4, §5, §1, §2

Row | Molecule | inhibition rate ([1]; 1st measurement) [%] | inhibition rate ([1]; 2nd measurement) [%] | inhibition rate ([1]; 3rd measurement) [%] | relative spleen weight compared with model group ([2]; 5 mg/kg) | relative thymus weight compared with model group ([2]; 5 mg/kg) | number of leukocytes compared with model group ([2]; 5 mg/kg) | percentage of lymphocytes compared with model group ([2]; 5 mg/kg) | relative tumor weight mean ± SD [3] | inhibition rate [3] [%] | relative tumor weight mean ± SD ([4]; 2.5 mg/kg by gavage) | inhibition rate ([4]; 2.5 mg/kg by gavage) [%] | relative tumor weight mean ± SD ([4]; 5 mg/kg by gavage) | inhibition rate ([4]; 5 mg/kg by gavage) [%] | relative tumor weight mean ± SD ([4]; 10 mg/kg by gavage) | inhibition rate ([4]; 10 mg/kg by gavage) [%] | relative tumor weight mean ± SD ([4]; 20 mg/kg by gavage) | inhibition rate ([4]; 20 mg/kg by gavage) [%] | best dose for tumor inhibition [4] [mg/kg] | further results
1 | O=c1[nH]cc(F)c(=O)[nH]1 [5-Fluorouracil, 5-fluorouracil] | – | – | – | – | – | – | – | – | – | – | – | – | – | – | – | – | – | – | inhibition at 25 µg/mL ([1]; Homo sapiens, HepG2, 25 μg/mL): 7.34%; inhibition at 50 µg/mL ([1]; Homo sapiens, HepG2, 50 μg/mL): 11.3%; inhibition at 100 µg/mL ([1]; Homo sapiens, HepG2, 100 μg/mL): 13.9%; inhibition at 200 µg/mL ([1]; Homo sapiens, HepG2, 200 μg/mL): 17.8%; inhibition at 400 µg/mL ([1]; Homo sapiens, HepG2, 400 μg/mL): 39.5%; inhibition at 600 µg/mL ([1]; Homo sapiens, HepG2, 600 μg/mL): 56.1%; inhibition at 800 µg/mL ([1]; Homo sapiens, HepG2, 800 μg/mL): 61.5%; inhibition at 1000 µg/mL ([1]; Homo sapiens, HepG2, 1000 μg/mL): 68%
2 | COC(=O)C1=COC(O[C@@H]2O[C@H](CO)[C@@H](O)[C@H](O)[C@H]2O)C2C(CO)=CC(OC(=O)/C=C/c3ccc(O)cc3)C12 (stereo partly drawn) [Methyl ester, E-6-O-(p-coumaroyl)scandoside methyl ester] | 7.558 | 5.565 | 7.273 | increase | increase | significant increase; also recorded: highest | increased most significantly | 4.65 ± 3.29* 10^−2 | 36.59 | 6.49 ± 1.56* 10^−2 | 21.92 | 4.24 ± 2.24* 10^−2 | 48.97 | 5.81 ± 2.19* 10^−2 | 30.17 | 5.98 ± 1.19* 10^−2 | 28.06 | 5 | number of erythrocytes compared among groups ([2]; 5 mg/kg): highest; inhibition rate ([4]; 5 mg/kg by gavage, listed as E-6-O-(p-coumaroyl)scandoside methyl ester): 48.97%
3 | O=P1(N(CCCl)CCCl)NCCCO1 (stereo not drawn) [Positive control, Cyclophosphamide, reference compound] | – | – | – | – | – | – | – | – | – | – | – | – | – | – | – | 3.56 ± 0.77* 10^−2 | 57.19 | – | number of erythrocytes compared with model group ([2]; 20 mg/kg): lower; relative spleen weight compared with model group ([2]; 20 mg/kg): decrease; also recorded: lower; relative thymus weight compared with model group ([2]; 20 mg/kg): increase; number of leukocytes compared with model group ([2]; 20 mg/kg): significant decrease; also recorded: lower; percentage of lymphocytes compared with model group ([2]; 20 mg/kg): increase
4 | O=C(O)/C=C/c1ccc(O)cc1 [p-coumaric acid, reference compound] | – | – | – | – | – | – | – | 6.07 ± 2.91* 10^−2 | 17.20 | – | – | – | – | – | – | – | – | – | –
5 | kaempferol-3-O-[2-O-(6-O-E-feruloyl)-β-D-glucopyranosyl]-β-D-galactopyranose | 18.7 | 12.07 | 19.28 | increase | increase | significant decrease | increase | – | – | 7.01 ± 1.56 10^−2 | 15.76 | 4.49 ± 1.95 10^−2 | 45.96 | 6.04 ± 2.78 10^−2 | 27.36 | 5.59 ± 1.96 10^−2 | 32.75 | 5 | inhibition rate ([4]; 5 mg/kg by gavage, listed as kaempferol-3-O-[2-O-(6-O-E-feruloyl)-β-D-glucopyranosyl]-β-D-galactopyranose): 45.96%
